PubChem BioAssay (NCI)
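Cultured in 96-well plates, cells were exposed to test compound for 48 hours across five concentrations. GI50 marks 50% less growth. Definition used: TGI = concentration required for complete inhibition of growth.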

Experiments:
Assay in all cases: growth of human tumour cells (NCI), 48 h
SR leukemia = test system: SR leukemia
UACC-257 melanoma = test system: UACC-257 melanoma
OVCAR-8 ovarian = test system: OVCAR-8 ovarian
MCF7 breast = test system: MCF7 breast
OVCAR-4 ovarian = test system: OVCAR-4 ovarian
M14 melanoma = test system: M14 melanoma
SNB-19 CNS = test system: SNB-19 CNS
CCRF-CEM leukemia = test system: CCRF-CEM leukemia
SNB-75 CNS = test system: SNB-75 CNS
IGROV1 ovarian = test system: IGROV1 ovarian

SMILES | TGI (SR leukemia) [µM] | TGI (UACC-257 melanoma) [µM] | TGI (OVCAR-8 ovarian) [µM] | TGI (MCF7 breast) [µM] | TGI (OVCAR-4 ovarian) [µM] | TGI (M14 melanoma) [µM] | TGI (SNB-19 CNS) [µM] | TGI (CCRF-CEM leukemia) [µM] | TGI (SNB-75 CNS) [µM] | TGI (IGROV1 ovarian) [µM] | GI50 (SR leukemia) [µM] | GI50 (SNB-75 CNS) [µM] | GI50 (MCF7 breast) [µM] | GI50 (OVCAR-4 ovarian) [µM] | GI50 (SNB-19 CNS) [µM] | GI50 (CCRF-CEM leukemia) [µM] | GI50 (IGROV1 ovarian) [µM] | GI50 (UACC-257 melanoma) [µM] | GI50 (OVCAR-8 ovarian) [µM] | GI50 (M14 melanoma) [µM]
CC(=O)OC(OC(C)=O)n1cc(C=O)c2ccccc21 | > 100 | > 100 | > 100 | > 100 | > 100 | > 100 | > 100 | > 100 | – | – | – | – | – | – | – | – | – | – | – | –
COP(=O)(OC)C(Cc1c[nH]c2ccccc12)NC(=O)OCc1ccccc1 (stereo not drawn) | > 100 | > 100 | > 100 | > 100 | > 100 | > 100 | > 100 | 29.2 | > 100 | > 100 | – | – | – | – | – | – | – | – | – | –
O=C(NC1CCN(Cc2ccccc2)CC1)c1cc2nc(-c3ccc(Cl)s3)cc(C(F)(F)F)n2n1 | 4.97 | – | – | > 100 | 49.3 | – | > 100 | > 100 | > 100 | > 100 | 2.13 | 10.5 | 8.98 | 12.7 | > 100 | > 100 | > 100 | – | – | –
N#C[S-].[Nd+3].c1ccc(-c2ccccn2)nc1.c1ccc(-c2ccccn2)nc1.c1ccc(-c2ccccn2)nc1 | > 100 | 61.2 | > 100 | – | > 100 | 5.96 | > 100 | – | 84.4 | 42.6 | 6.9 | 5.69 | – | 49.8 | 10.7 | – | 11.6 | 13.5 | 4.8 | 2.26
